Source: ChEMBL document CHEMBL1158720, “Ambigol C and 2,4-dichlorobenzoic acid, natural products produced by the terrestrial cyanobacterium Fischerella ambigua” (J Nat Prod, 2005)
≈ marks a conversion by molar mass, not a printed value. Calls of active or inactive are those of the source. No cut-off for these calls is given here.

Tests used:
[1] = system: Mycobacterium tuberculosis; assay: Antimicrobial activity against Mycobacterium tuberculosis; format: functional
[Chlorella] fusca = Antimicrobial activity against Chlorella fusca at 50 ug/filter disk; format: functional, Scenedesmus fuscus
Microbotryum violaceum = assay: Antimicrobial activity against […] at 50 ug/filter disk; format: functional
Plasmodium falciparum [2] = assay: Antiplasmodial activity against chloroquine-resistant Plasmodium falciparum K1; format: functional, organism-based
Priestia megaterium = assay: Antimicrobial activity against Bacillus megaterium at 50 ug/filter disk; format: functional
Plasmodium falciparum [3] = assay: Antiplasmodial activity against chloroquine-sensitive Plasmodium falciparum NF54; format: functional, organism-based
[4] = system: Aspergillus pseudoglaucus; assay: Antimicrobial activity against Eurotium repens at 50 ug/filter disk; format: functional
Mycotypha microspora = assay: Antimicrobial activity against Mycotypha microspora at 50 ug/filter disk; format: functional
Biomphalaria glabrata = assay: Molluscicidal activity against Biomphalaria glabrata at 100 ug/ml; format: functional, organism-based
[5] = system: Trypanosoma brucei rhodesiense; assay: Antitrypanosomal activity against Trypanosoma brucei rhodesiense trypomastigotes; format: functional
Fusarium oxysporum = assay: Antimicrobial activity against Fusarium oxysporum at 50 ug/filter disk; format: functional
Escherichia coli = assay: Antimicrobial activity against Escherichia coli at 50 ug/filter disk; format: functional
Trypanosoma cruzi = assay: Antitrypanosomal activity against Trypanosoma cruzi trypomastigotes; format: functional
L6 = assay: Cytotoxicity against rat L6 cells; format: functional

Compound: Oc1c(Cl)cc(Cl)cc1-c1c(Cl)cc(Cl)c(Oc2ccc(Cl)cc2Cl)c1O [AMBIGOL A]
- MIC [1]: 64 µg/mL (≈ 132 µM)
- inhibition zone (IZ) ([Chlorella] fusca): 3 mm
- inhibition zone (IZ) (Microbotryum violaceum): 7 mm
- IC50 (Plasmodium falciparum [2]): 0.846 µg/mL (≈ 1.74 µM)
- inhibition zone (IZ) (Priestia megaterium): 8 mm
- IC50 (Plasmodium falciparum [3]): 1.62 µg/mL (≈ 3.35 µM)
- inhibition zone (IZ) [4]: 7 mm
- inhibition zone (IZ) (Mycotypha microspora): 4 mm
- Activity (Biomphalaria glabrata): Active
- MIC [5]: 33 µg/mL (≈ 68 µM)
- inhibition zone (IZ) (Fusarium oxysporum): 8 mm
- Activity (Escherichia coli): inactive
- MIC (Trypanosoma cruzi): 33 µg/mL (≈ 68 µM)
- MIC (L6): 33 µg/mL (≈ 68 µM)

Compound: Oc1c(Cl)c(Oc2ccc(Cl)cc2Cl)cc(Oc2ccc(Cl)cc2Cl)c1Cl [AMBIGOL C]
- MIC [1]: > 128 µg/mL
- Activity ([Chlorella] fusca; Scenedesmus fuscus): inactive
- inhibition zone (IZ) (Microbotryum violaceum): 5 mm
- IC50 (Plasmodium falciparum [2]): 1.54 µg/mL (≈ 3.17 µM)
- inhibition zone (IZ) (Priestia megaterium): 7 mm
- IC50 (Plasmodium falciparum [3]): 2.5 µg/mL (≈ 5.15 µM)
- Activity [4]: inactive
- Activity (Mycotypha microspora): inactive
- Activity (Biomphalaria glabrata): inactive
- MIC [5]: 11 µg/mL (≈ 22.7 µM)
- Activity (Fusarium oxysporum): inactive
- Activity (Escherichia coli): inactive
- MIC (Trypanosoma cruzi): 100 µg/mL (≈ 206 µM)
- MIC (L6): 100 µg/mL (≈ 206 µM)

Compound: C[C@@H]1CC[C@H]2[C@@H](C)C(=O)O[C@@H]3O[C@@]4(C)CC[C@@H]1[C@]32OO4 [ARTEMISININ]
- IC50 (Plasmodium falciparum [2]): 0.001 µg/mL (≈ 0.00354 µM)
- IC50 (Plasmodium falciparum [3]): 0.003 µg/mL (≈ 0.0106 µM)

Compound: Nc1nc(N)nc(Nc2ccc([As]3SCC(CO)S3)cc2)n1 (configuration not stated) [MELARSOPROL]
- MIC [5]: 0.011 µg/mL
- MIC (Trypanosoma cruzi): 0.011 µg/mL

Compound: Clc1ccc(COC(Cn2ccnc2)c2ccc(Cl)cc2Cl)c(Cl)c1 (configuration not stated) [MICONAZOLE]
- inhibition zone (IZ) ([Chlorella] fusca): 20 mm
- inhibition zone (IZ) (Microbotryum violaceum): 20 mm
- inhibition zone (IZ) (Priestia megaterium): 20 mm
- inhibition zone (IZ) [4]: 20 mm
- inhibition zone (IZ) (Mycotypha microspora): 20 mm
- inhibition zone (IZ) (Fusarium oxysporum): 20 mm
- inhibition zone (IZ) (Escherichia coli): 20 mm

Compound: CO[C@H]1/C=C/O[C@@]2(C)Oc3c(C)c(O)c4c(O)c(c(/C=N/N5CCN(C)CC5)c(O)c4c3C2=O)NC(=O)/C(C)=C\C=C\[C@H](C)[C@H](O)[C@@H](C)[C@@H](O)[C@@H](C)[C@H](OC(C)=O)[C@@H]1C [RIFAMPIN]
- MIC [1]: 0.125 µg/mL (≈ 0.152 µM)

Compound: CN[C@@H]1[C@H](O[C@H]2[C@H](O[C@H]3[C@H](O)[C@@H](O)[C@H](N=C(N)N)[C@@H](O)[C@@H]3N=C(N)N)O[C@@H](C)[C@]2(O)C=O)O[C@@H](CO)[C@H](O)[C@H]1O.CN[C@@H]1[C@H](O[C@H]2[C@H](O[C@H]3[C@H](O)[C@@H](O)[C@H](N=C(N)N)[C@@H](O)[C@@H]3N=C(N)N)O[C@@H](C)[C@]2(O)C=O)O[C@@H](CO)[C@H](O)[C@H]1O.O=S(=O)(O)O.O=S(=O)(O)O.O=S(=O)(O)O [STREPTOMYCIN SULFATE]
- inhibition zone (IZ) ([Chlorella] fusca): 4 mm
- inhibition zone (IZ) (Microbotryum violaceum): 4 mm
- inhibition zone (IZ) (Priestia megaterium): 4 mm
- inhibition zone (IZ) [4]: 4 mm
- inhibition zone (IZ) (Mycotypha microspora): 4 mm
- inhibition zone (IZ) (Fusarium oxysporum): 4 mm
- inhibition zone (IZ) (Escherichia coli): 4 mm
